Measured values published in patent US20080206819A1, “Intensified Perfusion Production Method” (priority 2006, published 2008).

Assays:
[1] = tested on: Chinese hamster ovary (CHO) cell line; test: Cell viability, traditional perfusion vs. RaMP (trypan blue staining); type: cell-based
Method: The production cell line used for all experiments is a CHO (Chinese Hamster Ovary) cell-derived cell line transfected with the desired construct to produce a recombinant IgG1 protein. For all of the experiments, the cell line was grown in the RBM12.1 media under selective pressure (100 μg/ml Hygromycin B and 500 nM methotrexate). The cells were seeded in at a density of 4×10^5 to 1×10^6 cells per milliliter, depending on bioreactor size. pH was kept at 7.1±0.05 and temperature was kept at 37° C.±0.5. The perfusion rate for both traditional perfusion and the methods of the invention (RaMP) was 1.0 to 2.0 volumes/day. The cell retention devices used were the hollow fiber system and/or the cell settler system. […] The cell settler system (retention by gravity) seem to overcome this problem. Sodium butyrate was introduced into the bioreactor after the cells reached the desired cell density (around 20 million cells/ml). Once sodium butyrate was introduced into the perfusion system, the cells were kept at that sodium butyrate condition until the next higher dose. This gradual ramping of sodium butyrate concentration was continued until the desired final concentration of sodium butyrate was reached. Once the desired sodium butyrate concentration is reached, the cells are grown in media in media containing the desired sodium butyrate concentration for the rest of the production run.
The mammalian host cell line used is a Chinese hamster ovary (CHO) cell line. This cell line has been transfected with the light and heavy chains of a chimeric IgG1 monoclonal antibody. The cells were grown in RBM12.1 medium under selective pressure (100 μg/ml Hygromycin B and 500 nM methotrexate (MTX). The medium used for this example contained the components in Table 1. Additional factors such as 10 μg/ml recombinant human insulin and 0.1% F68 are also added to the medium.
During the growth period, the cultures were controlled at pH 7.1±0.05 by the use of CO2 gas (acid) and/or Na2CO3 (base). Temperature was controlled at 37°±0.5 Celsius. Oxygen level was maintained at about 100% air saturation. For the initial growth period, CO2 level was maintained at 5%. When the cell density reached […] cells/ml, CO2 gas to the culture was turned off. The osmolality of the culture was maintained between 325 to 400 mOsm with minimal osmolality drift.
In a typical production schedule, 5×10^5 to 1×10^6 cells were inoculated into the cell culture bioreactor. 1 to 1.5 volumes of media was perfused daily. Cell density and viability was monitored by pulling a sample from the bioreactor and counted using trypan blue staining for live/dead cells.
Ten days after inoculation, the production period was started with the gradual addition of sodium butyrate (Na butyrate) into the RaMP cultures. 1.5 volume of RBM12.1 medium with 1 mM Na butyrate was perfused into the biorector on day 1 of the production period. This concentration of Na butyrate was kept in the bioreactor using the RaMP method for the duration of the production period. For cells in the traditional perfusion method, RBM12.1 media without Na butyrate was perfused into the bioreactor at the same perfusion rate as used in the RaMP method. Cell viability was monitored daily.

[2] = tested on: Chinese hamster ovary (CHO) cell line; test: Effect of mode of sodium butyrate addition (bolus vs. gradual ramping) on cell viability; type: cell-based
Method: In order to investigate if the method used to deliver sodium butyrate into the cell culture bioreactor would effect cell viability, two modes of delivery were tested: bolus introduction of the desired sodium butyrate concentration and the gradual “ramping” to the desired sodium butyrate concentration. The growth period conditions were identical to those described above.
On Day 9, sodium butyrate was introduced into the bioreactors. In the bolus condition, 2 mM sodium butyrate (final concentration) was added to the medium and perfused into the bioreactor. […] The maximal concentration of sodium butyrate was maintained for the rest of the production run. Cell viability was determined by pulling samples from each bioreactor and trypan blue staining for live/dead cells. After the bolus addition of 2 mM sodium butyrate, the cell viability started to decline (after day 9). The bioreactor for the bolus condition was stopped on day 19 after the viability dropped below 50%. In contrast, the gradual ramping of sodium butyrate from day 9 to day 14 maintained high cell viability (over 85%).

[3] = tested on: recombinant CHO cells; settings: perfusion culture; end of the production run, in most cases; cited from earlier work

**Q.** With `CCCC(=O)[O-].[Na+]` [sodium butyrate] as the compound, how does the “% viable cells (RaMP)” value ([1]; 1 mM Na butyrate perfused from start of production period, day 10) read?
**A.** 97%

**Q.** What about the “% viable cells (RaMP)” value ([1]; 1 mM Na butyrate, day 11) of the same compound?
**A.** 97.6%

**Q.** What about the “% viable cells (RaMP)” value ([1]; 1 mM Na butyrate, day 12) of the same compound?
**A.** 96.4%

**Q.** And the “% viable cells (RaMP)” value ([1]; 1 mM Na butyrate, day 13)?
**A.** 97.1%

**Q.** What about the “% viable cells (RaMP)” value ([1]; 1 mM Na butyrate, day 14) of the same compound?
**A.** 95.7%

**Q.** And the “% viable cells (RaMP)” value ([1]; 1 mM Na butyrate, day 15)?
**A.** 96.1%

**Q.** What about the “% viable cells (RaMP)” value ([1]; 1 mM Na butyrate, day 16) of the same compound?
**A.** 97.2%

**Q.** And the “% viable cells (RaMP)” value ([1]; 1 mM Na butyrate, day 17)?
**A.** 96.4%

**Q.** And the “% viable cells (RaMP)” value ([1]; 1 mM Na butyrate, day 18)?
**A.** 97%

**Q.** And the “% viable cells (RaMP)” value ([1]; 1 mM Na butyrate, day 19)?
**A.** 96.9%

**Q.** What about the “% viable cells (RaMP)” value ([1]; 1 mM Na butyrate, day 20) of the same compound?
**A.** 95.8%

**Q.** And the cell viability ([1]; RaMP method, 1 mM Na butyrate, production period)?
**A.** sustained high cell viability

**Q.** And the “% viable cells (bolus)” value ([2]; bolus 2 mM from Day 9, day 10 in culture)?
**A.** 76%

**Q.** And the “% viable cells (bolus)” value ([2]; bolus 2 mM from Day 9, day 11 in culture)?
**A.** 73%

**Q.** And the “% viable cells (bolus)” value ([2]; bolus 2 mM from Day 9, day 12 in culture)?
**A.** 76%

**Q.** What about the “% viable cells (bolus)” value ([2]; bolus 2 mM from Day 9, day 13 in culture) of the same compound?
**A.** 72%

**Q.** What about the “% viable cells (bolus)” value ([2]; bolus 2 mM from Day 9, day 14 in culture) of the same compound?
**A.** 72%

**Q.** And the “% viable cells (bolus)” value ([2]; bolus 2 mM from Day 9, day 15 in culture)?
**A.** 84%

**Q.** And the “% viable cells (bolus)” value ([2]; bolus 2 mM from Day 9, day 16 in culture)?
**A.** 79%

**Q.** And the “% viable cells (bolus)” value ([2]; bolus 2 mM from Day 9, day 17 in culture)?
**A.** 76%

**Q.** What about the “% viable cells (bolus)” value ([2]; bolus 2 mM from Day 9, day 18 in culture) of the same compound?
**A.** 80%

**Q.** And the “% viable cells (bolus)” value ([2]; bolus 2 mM from Day 9, day 19 in culture)?
**A.** 44%

**Q.** What about the “% viable cells (bolus)” value ([2]; bolus 2 mM sodium butyrate introduced Day 9, day 9 in culture) of the same compound?
**A.** 89%

**Q.** And the cell viability ([2]; bolus 2 mM sodium butyrate, day 19, bioreactor stopped)?
**A.** below 50%

**Q.** What about the “% viable cells (RaMP)” value ([2]; gradual ramping from 0.5 mM Day 9 to maximal by Day 14, day 10 in culture) of the same compound?
**A.** 97%

**Q.** What about the “% viable cells (RaMP)” value ([2]; gradual ramping from 0.5 mM Day 9 to maximal by Day 14, day 11 in culture) of the same compound?
**A.** 97.6%

**Q.** What about the “% viable cells (RaMP)” value ([2]; gradual ramping from 0.5 mM Day 9 to maximal by Day 14, day 12 in culture) of the same compound?
**A.** 96.4%

**Q.** And the “% viable cells (RaMP)” value ([2]; gradual ramping from 0.5 mM Day 9 to maximal by Day 14, day 13 in culture)?
**A.** 97.1%

**Q.** What about the “% viable cells (RaMP)” value ([2]; gradual ramping from 0.5 mM Day 9 to maximal by Day 14, day 14 in culture) of the same compound?
**A.** 95.7%

**Q.** What about the cell viability ([2]; gradual ramping of sodium butyrate from day 9 to day 14) of the same compound?
**A.** over 85%

**Q.** And the “% viable cells (RaMP)” value ([2]; maximal concentration maintained after ramping, day 15 in culture)?
**A.** 96.7%

**Q.** And the “% viable cells (RaMP)” value ([2]; maximal concentration maintained after ramping, day 16 in culture)?
**A.** 97.2%

**Q.** What about the “% viable cells (RaMP)” value ([2]; maximal concentration maintained after ramping, day 17 in culture) of the same compound?
**A.** 96.4%

**Q.** And the “% viable cells (RaMP)” value ([2]; maximal concentration maintained after ramping, day 18 in culture)?
**A.** 97%

**Q.** And the “% viable cells (RaMP)” value ([2]; maximal concentration maintained after ramping, day 19 in culture)?
**A.** 96.9%

**Q.** And the “% viable cells (RaMP)” value ([2]; maximal concentration maintained after ramping, day 20 in culture)?
**A.** 95.8%

**Q.** What about the “% viable cells (RaMP)” value ([2]; maximal concentration maintained after ramping, day 21 in culture) of the same compound?
**A.** 95.4%

**Q.** What about the “% viable cells (RaMP)” value ([2]; maximal concentration maintained after ramping, day 22 in culture) of the same compound?
**A.** 98.7%

**Q.** And the “% viable cells (RaMP)” value ([2]; maximal concentration maintained after ramping, day 23 in culture)?
**A.** 90.6%

**Q.** What about the “% viable cells (RaMP)” value ([2]; maximal concentration maintained after ramping, day 24 in culture) of the same compound?
**A.** 89.7%

**Q.** And the “% viable cells (RaMP)” value ([2]; maximal concentration maintained after ramping, day 25 in culture)?
**A.** 88.8%

**Q.** What about the “% viable cells (RaMP)” value ([2]; sodium butyrate from 0.5 mM on Day 9, gradually increased to maximal concentration by Day 14, day 9 in culture) of the same compound?
**A.** 97.4%

**Q.** What about the cell viability [3] of the same compound?
**A.** less than 45%
